Data set [1] deals with Radical scavenging activity. The data set is described as follows: Antioxidant activity assessed as DPPH free radical scavenging activity at 1 mg assessed per mg. The format is functional. (In general: Loss of DPPH colour is used to gauge radical scavenging.)
A short description of data set [2]: Antioxidant activity assessed as hydroxyl free radical scavenging activity at 1 mg assessed per mg. The format is functional.
The test system of a further data set is HCT-116. As to the kind of experiment: Cytotoxicity against human HCT116 cells assessed as inhibition of cell proliferation at 1 mg/ml after 48 hrs by MTT assay. The data set is classed as functional. The following applies: HCT-116, 48 h. For orientation: Tetrazolium dyes change colour on reduction, which living cells bring about.
Data set [3] can be described thus: Cytotoxicity against C57BL/6 mouse spleen lymphocytes assessed as inhibition of cell proliferation at 1 mg/ml after 48 hrs by MTT assay. The data set is classed as tissue-based, Lymphocyte.

Each structure is given as a SMILES string.

As for `N#CC1=C(N)n2c(s/c(=C\c3cccc([N+](=O)[O-])c3)c2=O)=C(C#N)C1c1cccc([N+](=O)[O-])c1` (centres undefined), the figures for the inhibition in data set [1] and in data set [2] were 45.9% and 56.8%, respectively. The inhibition (commonly the relative decrease from the control value, in per cent) at 1000 µg/mL in the data set with HCT-116 worked out at 53%. The inhibition at 48 h, 1 mg/ml in data set [3] was determined as 60.4%.

For `COc1ccc(C2C(C#N)=C(N)N3C(=O)CSC3=C2C#N)cc1` (centres undefined), the inhibition in data set [1] was found to be 140%. Also, the inhibition at 1000 µg/mL in the data set with HCT-116 turned out to be 50.2%. The inhibition at 48 h, 1 mg/ml in data set [3] is 70.6%.

Take `N#CC1=C(N)N2C(=O)CSC2=C(C#N)C1c1ccc2c(c1)OCO2` (centres undefined): in the data set on HCT-116, the inhibition at 1000 µg/mL was found to be 51.8%. In addition, in data set [3], the inhibition at 48 h, 1 mg/ml was determined as 62%.

As for `O=C1O[C@H]([C@@H](O)CO)C(O)=C1O`, the inhibition in data set [2] is 109%.

In the case of `N#CC1=C(N)n2c(s/c(=C\c3cccs3)c2=O)=C(C#N)C1c1cccs1` (centres undefined), the inhibition at 1000 µg/mL in the data set with HCT-116 was 63.8%. For the same compound, the inhibition at 48 h, 1 mg/ml in data set [3] was 55.4%.

For `N#CC1=C(N)n2c(s/c(=C\c3ccc([N+](=O)[O-])cc3)c2=O)=C(C#N)C1c1ccc([N+](=O)[O-])cc1` (centres undefined), in the data set with HCT-116, the inhibition at 1000 µg/mL came to 35.5%. The inhibition at 48 h, 1 mg/ml in data set [3] is 51.7%.

Consider `N#CC1=C(N)N2C(=O)CSC2=C(C#N)C1c1ccccc1` (centres undefined), for which the inhibition at 1000 µg/mL in the data set with HCT-116 worked out at 50.8%. In addition, the inhibition at 48 h, 1 mg/ml in data set [3] is 64.8%.

As to `Cc1ccc(C2C(C#N)=C(N)N3C(=O)CSC3=C2C#N)cc1` (centres undefined), the inhibition at 1000 µg/mL in the data set on HCT-116 worked out at 47.4%. Further, the inhibition at 48 h, 1 mg/ml in data set [3] turned out to be 63.8%.

As for `N#CC1=C(N)n2c(s/c(=C\c3ccc(Br)cc3)c2=O)=C(C#N)C1c1ccc(Br)cc1` (centres undefined), the inhibition was determined as 108% in data set [1] and 125% in data set [2]. Besides, in the data set with HCT-116, the inhibition at 1000 µg/mL came to 56.6%. Besides, the inhibition at 48 h, 1 mg/ml in data set [3] came out at 71.3%.

As to `N#CC1=C(N)N2C(=O)CSC2=C(C#N)C1c1ccc(Cl)cc1Cl` (centres undefined), the inhibition at 1000 µg/mL in the data set with HCT-116 is 29.9%. Besides, the inhibition at 48 h, 1 mg/ml in data set [3] was determined as 55.4%.

For the compound `N#CC1=C(N)N2C(=O)CSC2=C(C#N)C1c1ccc(Br)cc1` (centres undefined), the inhibition in data set [1] was 67.7%. Also, in the data set with HCT-116, the inhibition at 1000 µg/mL amounted to 43.5%. In addition, in data set [3], the inhibition at 48 h, 1 mg/ml was found to be 69.6%.

With `N#CC1=C(N)n2c(s/c(=C\c3ccc(O)c([N+](=O)[O-])c3)c2=O)=C(C#N)C1c1ccc(O)c([N+](=O)[O-])c1` (centres undefined), the inhibition in data set [1] amounted to 109%. In addition, in the data set with HCT-116, the inhibition at 1000 µg/mL worked out at 41.2%. Moreover, the inhibition at 48 h, 1 mg/ml in data set [3] was determined as 5.31%.

With `N#CC1=C(N)N2C(=O)CSC2=C(C#N)C1c1ccc(F)cc1` (centres undefined), the inhibition at 1000 µg/mL in the data set with HCT-116 was 47.8%. Further, in data set [3], the inhibition at 48 h, 1 mg/ml worked out at 66.9%.

Turning to `N#CC1=C(N)N2C(=O)CSC2=C(C#N)C1c1ccccc1Cl` (centres undefined), in the data set with HCT-116, the inhibition at 1000 µg/mL is 54.1%. The inhibition at 48 h, 1 mg/ml in data set [3] stood at 60.4%.

Source of the values: ChEMBL document CHEMBL1155215, “Green chemoselective synthesis of thiazolo[3,2-a]pyridine derivatives and evaluation of their antioxidant and cytotoxic activities” (Bioorg Med Chem Lett, 2009).
